Measured values: patent US11434242B2, “Dopamine-b-hydroxylase inhibitors” (BIAL-PORTELA & Cª, S.A., priority 2017, dated 2022)

What was measured:
DβH = molecular target: T1, DβH (Homo sapiens, UniProt P09172); experiment: DβH inhibition assay in SK-N-SH cellular homogenates (tyramine to octopamine); type: biochemical; settings: SK-N-SH cell homogenate; for SKNSH (1 μM), activity in % of control: inhibitor 1 μM; for SKNSH (0.1 μM), activity in % of control: inhibitor 0.1 μM
T1 construct: cellular homogenate (75 μg total protein); host or cells: SK-N-SH cells (homogenate)
T1 sequence (P09172 1-617): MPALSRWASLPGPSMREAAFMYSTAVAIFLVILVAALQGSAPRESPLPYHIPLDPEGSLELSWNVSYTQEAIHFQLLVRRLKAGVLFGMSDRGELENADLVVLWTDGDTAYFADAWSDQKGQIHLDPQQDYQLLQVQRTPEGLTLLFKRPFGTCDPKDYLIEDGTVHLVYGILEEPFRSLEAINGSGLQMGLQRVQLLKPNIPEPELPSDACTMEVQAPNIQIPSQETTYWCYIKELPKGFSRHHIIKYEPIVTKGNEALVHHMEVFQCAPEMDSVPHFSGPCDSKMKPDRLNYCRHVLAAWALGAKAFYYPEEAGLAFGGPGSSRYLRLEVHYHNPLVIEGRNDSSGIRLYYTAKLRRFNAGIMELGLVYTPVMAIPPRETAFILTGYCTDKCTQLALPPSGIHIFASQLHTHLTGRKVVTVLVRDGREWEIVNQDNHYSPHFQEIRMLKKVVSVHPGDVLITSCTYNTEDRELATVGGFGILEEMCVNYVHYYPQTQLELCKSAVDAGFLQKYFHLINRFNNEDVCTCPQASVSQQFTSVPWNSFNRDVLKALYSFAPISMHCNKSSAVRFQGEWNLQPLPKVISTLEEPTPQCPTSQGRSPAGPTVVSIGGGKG

[1] = molecular target: T2, Dopamine beta hydroxylase (Homo sapiens, UniProt P09172); experiment: Dopamine beta hydroxylase activity in human plasma; type: biochemical; settings: for Plasma (0.1 μM), activity in % of control: inhibitor 0.1 μM; for Plasma (1 μM), activity in % of control: inhibitor 1 μM
T2 construct: 125 μl of plasma; tissue Instituto Português do Sangue Transplantação; host or cells: human plasma from healthy donors
T2 sequence (P09172 40-617 limits assumed): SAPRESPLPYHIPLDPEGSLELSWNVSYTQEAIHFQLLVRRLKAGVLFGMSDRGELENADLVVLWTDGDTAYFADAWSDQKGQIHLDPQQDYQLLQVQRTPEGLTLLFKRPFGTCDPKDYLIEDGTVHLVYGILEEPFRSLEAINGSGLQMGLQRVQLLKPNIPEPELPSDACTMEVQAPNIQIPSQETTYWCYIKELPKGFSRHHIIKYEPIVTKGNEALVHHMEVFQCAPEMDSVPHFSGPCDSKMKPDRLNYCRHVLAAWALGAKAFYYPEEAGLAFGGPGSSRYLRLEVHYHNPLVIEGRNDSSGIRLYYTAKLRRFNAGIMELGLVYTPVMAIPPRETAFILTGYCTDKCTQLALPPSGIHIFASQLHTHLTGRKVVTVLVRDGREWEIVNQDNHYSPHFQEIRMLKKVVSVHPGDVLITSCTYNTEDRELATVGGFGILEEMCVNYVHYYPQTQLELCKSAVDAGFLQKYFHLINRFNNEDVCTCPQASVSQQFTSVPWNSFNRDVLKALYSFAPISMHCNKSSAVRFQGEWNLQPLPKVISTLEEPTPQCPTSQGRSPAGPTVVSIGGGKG
Summary of the method: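 Healthy-donor human plasma pre-incubated 10 min at 37° C with compound at final 10, 100 or 1000 nM in pH 5.0 acetate buffer with ascorbate, fumarate, pargyline, N-ethylmaleimide, catalase and copper sulfate. Tyramine substrate then added for 45 min; octopamine formed was isolated by SCX cartridge, periodate-converted and read at 330 nm; activity given as % control.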

| Compound | SKNSH (1 μM), activity in % of control (DβH) | SKNSH (0.1 μM), activity in % of control (DβH) | Plasma (0.1 μM), activity in % of control [1] | Plasma (1 μM), activity in % of control [1] |
| --- | --- | --- | --- | --- |
| CN(CCc1[nH]c(=S)n2c1[C@@H]1C[C@]1(c1cc(F)ccc1F)C2)Cc1ccccc1 [Example 40, (5aS,6aR)-1-(2-(benzyl(methyl)amino)ethyl)-5a-(2,5-difluorophenyl)-5,5a,6,6a-tetrahydrocyclopropa[3,4]pyrrolo[1,2-c]imidazole-3(2H)-thione] | 29.3 % of control |  |  |  |
| Fc1ccc(F)c([C@]23C[C@H]2c2c(Cc4nnn[nH]4)[nH]c(=S)n2C3)c1 [Example 41, (5aS,6aR)-1-((1H-tetrazol-5-yl)methyl)-5a-(2,5-difluorophenyl)-5,5a,6,6a-tetrahydrocyclopropa[3,4]pyrrolo[1,2-c]imidazole-3(2H)-thione] | 60.7 % of control |  |  |  |
| OCCc1[nH]c(=S)n2c1[C@@H]1C[C@]1(c1cc(F)ccc1F)C2 [Example 42, (5aS,6aR)-5a-(2,5-difluorophenyl)-1-(2-hydroxyethyl)-5,5a,6,6a-tetrahydrocyclopropa[3,4]pyrrolo[1,2-c]imidazole-3(2H)-thione] | 8.0 % of control | 51.5 % of control |  |  |
| O=C(O)c1[nH]c(=S)n2c1C[C@@H](c1cc(F)cc(F)c1)C2 [Example 43, (S)-6-(3,5-difluorophenyl)-3-thioxo-3,5,6,7-tetrahydro-2H-pyrrolo[1,2-c]imidazole-1-carboxylic Acid] | 45.6 % of control |  |  |  |
| CCOC(=O)Cc1[nH]c(=S)n2c1C1CC1(c1cccs1)C2 (stereo not shown) [Example 44, Ethyl 2-(5a-(thiophen-2-yl)-3-thioxo-2,3,5,5a,6,6a-hexahydrocyclopropa[3,4]pyrrolo[1,2-c]imidazol-1-yl)acetate] | 45.9 % of control |  |  |  |
| O=Cc1[nH]c(=S)n2c1C[C@@H](c1cc(F)cc(F)c1)C2 [Example 45, (S)-6-(3,5-difluorophenyl)-3-thioxo-3,5,6,7-tetrahydro-2H-pyrrolo[1,2-c]imidazole-1-carbaldehyde] | 46.8 % of control |  |  |  |
| CS(=O)(=O)Cc1[nH]c(=S)n2c1C[C@@H](c1c(F)c(F)cc(F)c1F)C2 [Example 47, (S)-1-(methylsulfonylmethyl)-6-(2,3,5,6-tetrafluorophenyl)-6,7-dihydro-2H-pyrrolo[1,2-c]imidazole-3(5H)-thione] | 62.9 % of control |  |  |  |
| Fc1ccc(F)c([C@]23C[C@H]2c2c(CCc4ccccc4)[nH]c(=S)n2C3)c1 [Example 48, (5aS,6aR)-5a-(2,5-difluorophenyl)-1-phenethyl-5,5a,6,6a-tetrahydrocyclopropa[3,4]pyrrolo[1,2-c]imidazole-3(2H)-thione] | 48.4 % of control |  |  |  |
| Fc1ccc(F)c([C@]23C[C@H]2c2c(CCCc4ccccc4)[nH]c(=S)n2C3)c1 [Example 49, (5aS,6aR)-5a-(2,5-difluorophenyl)-1-(3-phenylpropyl)-5,5a,6,6a-tetrahydrocyclopropa[3,4]pyrrolo[1,2-c]imidazole-3(2H)-thione] | 33.7 % of control |  |  |  |
| NC(=O)Cc1[nH]c(=S)n2c1[C@@H]1C[C@]1(c1c(F)ccc(Br)c1F)C2 [Example 57, 2-((5aS,6aR)-5a-(3-bromo-2,6-difluorophenyl)-3-thioxo-2,3,5,5a,6,6a-hexahydrocyclopropa[3,4]pyrrolo[1,2-c]imidazol-1-yl)acetamide] | 0.2 % of control | 11.6 % of control | 18.1 % of control | 0.1 % of control |

Other lines, results leading:

| SKNSH (1 μM), activity in % of control (DβH) | SKNSH (0.1 μM), activity in % of control (DβH) | Plasma (0.1 μM), activity in % of control [1] | Plasma (1 μM), activity in % of control [1] | Compound |
| --- | --- | --- | --- | --- |
| 1.8 % of control | 57.5 % of control |  |  | OCc1[nH]c(=S)n2c1[C@@H]1C[C@]1(c1cc(F)cc(F)c1)C2 [Example 50, (5aS,6aR)-5a-(3,5-difluorophenyl)-1-(hydroxymethyl)-5,5a,6,6a-tetrahydrocyclopropa[3,4]pyrrolo[1,2-c]imidazole-3(2H)-thione] |
| 0 % of control | 0.4 % of control | 5.7 % of control | 0 % of control | O=C(O)Cc1[nH]c(=S)n2c1[C@@H]1C[C@]1(c1c(F)ccc(Br)c1F)C2 [Example 51, 2-((5aS,6aR)-5a-(3-bromo-2,6-difluorophenyl)-3-thioxo-2,3,5,5a,6,6a-hexahydrocyclopropa[3,4]pyrrolo[1,2-c]imidazol-1-yl)acetic Acid] |
| 0.2 % of control | 9.2 % of control | 10.3 % of control | 1.6 % of control | O=C(O)Cc1[nH]c(=S)n2c1[C@@H]1C[C@]1(c1cc(Cl)ccc1F)C2 [Example 52, 2-((5aS,6aR)-5a-(5-chloro-2-fluorophenyl)-3-thioxo-2,3,5,5a,6,6a-hexahydrocyclopropa[3,4]pyrrolo[1,2-c]imidazol-1-yl)acetic Acid] |
| 0 % of control | 13.4 % of control | 26.2 % of control | 2.7 % of control | O=C(O)Cc1[nH]c(=S)n2c1[C@@H]1C[C@]1(c1cc(F)cc(Cl)c1)C2 [Example 53, 2-((5aS,6aR)-5a-(3-chloro-5-fluorophenyl)-3-thioxo-2,3,5,5a,6,6a-hexahydrocyclopropa[3,4]pyrrolo[1,2-c]imidazol-1-yl)acetic Acid] |
| 4.2 % of control | 33.8 % of control | 32.2 % of control | 3.4 % of control | CCOC(=O)Cc1[nH]c(=S)n2c1[C@@H]1C[C@]1(c1cc(Cl)ccc1F)C2 [Example 54, Ethyl 2-((5aS,6aR)-5a-(5-chloro-2-fluorophenyl)-3-thioxo-2,3,5,5a,6,6a-hexahydrocyclopropa[3,4]pyrrolo[1,2-c]imidazol-1-yl)acetate] |
| 3.9 % of control | 48.9 % of control | 62.1 % of control | 11.1 % of control | CCOC(=O)Cc1[nH]c(=S)n2c1[C@@H]1C[C@]1(c1cc(F)cc(Cl)c1)C2 [Example 55, Ethyl 2-((5aS,6aR)-5a-(3-chloro-5-fluorophenyl)-3-thioxo-2,3,5,5a,6,6a-hexahydrocyclopropa[3,4]pyrrolo[1,2-c]imidazol-1-yl)acetate] |
| 9.3 % of control | 56.8 % of control | 59.2 % of control | 14.0 % of control | NC(=O)Cc1[nH]c(=S)n2c1[C@@H]1C[C@]1(c1cc(F)cc(Cl)c1)C2 [Example 58, 2-((5aS,6aR)-5a-(3-chloro-5-fluorophenyl)-3-thioxo-2,3,5,5a,6,6a-hexahydrocyclopropa[3,4]pyrrolo[1,2-c]imidazol-1-yl)acetamide] |
